Read-outs that look alike come from different tables or passages of the source.
Experiments:
[1] = Quantity of T4 microaggregates formed in water: HPLC T4 concentration before and after 0.2 μm microfiltration; format: physicochemical
Description: […] 50 mL of each sample taken is microfiltered through a Millipore GSWP02500 membrane with a porosity of 0.2 μm.
(§1) 50 mL of each sample taken is microfiltered through a Millipore GSWP02500 membrane with a porosity of […].
as §1
50 mL of each sample taken is microfiltered through a Millipore GSWP02500 membrane with a porosity of 0.2 μm.

[2] = cited from earlier work
[3] = Filtration through membranes with cut-off ≤100 KDa: T4 in the permeate; format: physicochemical
[4] = cited from earlier work; remark: listed apart in the source
[5] = Scanning electron microscopy (SEM) of the filter membrane surface; format: physicochemical; conditions: T4 powder in water, comparative example
Description: These findings indicate that despite the 1:100 dilution process undergone by the original 150 μg/mL mixture, the formation of microaggregates remains stable, even after 8 h, and removes a considerable amount of the active ingredient from the pharmacological action.

[6] = Protective effect of PEG: residual T4 assay by HPLC after 10 h stirring under nitrogen or oxygen; format: physicochemical; conditions: 600 rpm, 35° C.
Description: 5 mL of each solution is left under stirring for 10 h at 600 rpm and 35° C. in a nitrogen atmosphere, and 5 mL is left under the same conditions but in an oxygen atmosphere.

[7] = Saturation of T4 solutions in PEG; format: physicochemical; conditions: T4 solvated in PEG
Text: Due to their structure, said nanoaggregates are easily absorbed at gastrointestinal level, and are therefore completely and certainly bioavailable.

[8] = T4 150 μg/mL in 50% w/w aqueous PEG 400, 2000, 4000 or 8000 (all types), diluted 100 times in water pH 1.5, T0
[9] = T4 150 μg/mL in 50% w/w aqueous PEG 400, 2000, 4000 or 8000 (all types), diluted 100 times in water pH 6.5, T0
[10] = T4 150 μg/mL in PEG 200, 300, 400 or 600 (all types), diluted 100 times in water pH 6.5, T0

T4 concentration after microfiltration ([1]; T4 150 μg/mL in 30% w/w aqueous PEG 400, 2000, 4000 or 8000 (all types), diluted 100 times in water pH 6.5, T0): 75 % of the value before microfiltration
T4 concentration after microfiltration [1, 8]: 100 % of the theoretical value
T4 concentration before microfiltration [1, 8]: 100 % of the theoretical value
T4 concentration after microfiltration [1, 9]: 100 % of the theoretical value
T4 concentration before microfiltration [1, 9]: 100 % of the theoretical value
T4 concentration after microfiltration [1, 10]: 100 % of the theoretical value
T4 concentration before microfiltration [1, 10]: 100 % of the theoretical value
T4 concentration after microfiltration compared with before ([1]; T4 150 μg/mL in PEG 8000/glycerol or PEG/ethanol 50/50 w/w (both systems), diluted 100 times in water pH 6.5, T0): identical to that before microfiltration
behaviour at later times (microfiltration) ([1]; T4 in 30% w/w aqueous PEG, diluted 100 times in water pH 6.5, T1h, T4h and T8h): behaviour similar to that at T0
T4 concentration in the solution before microfiltration ([1]; T4 powder 150 μg/mL in water pH 6.5, diluted 1:100 in water pH 6.5, T0 (30 sec)): 97.3 % of the theoretical value
T4 concentration after microfiltration ([1]; T4 powder 150 μg/mL in water pH 6.5, diluted 1:100 in water pH 6.5, T0 (30 sec), 0.2 μm filter): 18.5 % of the theoretical value
T4 concentration in the solution before microfiltration ([1]; T4 powder in water pH 6.5, diluted 1:100, T1h): 97.9%
T4 concentration after microfiltration ([1]; T4 powder in water pH 6.5, diluted 1:100, T1h, 0.2 μm filter): 27.1%
T4 concentration in the solution before microfiltration ([1]; T4 powder in water pH 6.5, diluted 1:100, T4h): 98.2%
T4 concentration after microfiltration ([1]; T4 powder in water pH 6.5, diluted 1:100, T4h, 0.2 μm filter): 27.5%
T4 concentration in the solution before microfiltration ([1]; T4 powder in water pH 6.5, diluted 1:100, T8h): 97.5%
T4 concentration after microfiltration ([1]; T4 powder in water pH 6.5, diluted 1:100, T8h, 0.2 μm filter): 23.7%
average length on the longer axis of elongated crystalline structures on the filter [5]: exceeding 3.03±1.40 μm
residual T4 assay value ([6]; T4 150 μg/mL in glycerol or ethanol, oxygen atmosphere): 30 % of the original assay value
concentration of T4 solution in PEG usable without the system becoming saturated [7]: up to 0.1 g/mL
Substance: (2S)-2-amino-3-[4-(4-hydroxy-3,5-diiodo-oxyphenyloxy)-3,5-diiodophenyl]propanoic acid [T4]
half-life of the medicament ([2]; euthyroidism): about 7 days
half-life of the medicament ([2]; hypothyroidism and pregnancy): 220 to 240 h
share absorbed in the duodenum ([2]; oral, small intestine): 21%
share absorbed in the ileum ([2]; oral, small intestine): 34%
share absorbed in the jejunum ([2]; oral, small intestine): 45%
time absorption takes ([2]; oral): about three
T4 in the permeate of ≤100 KDa membrane ([3]; T4 in 50% PEG in water, diluted 100 times in water pH 6.5): quantitative absence of T4 in the permeate
T4 in the permeate of ≤100 KDa membrane ([3]; T4 in 50% w/w aqueous PEG, diluted 100 times in water pH 1.5): quantitative absence of T4 in the permeate
T4 in the permeate of ≤100 KDa membrane ([3]; T4 in PEG 200, 300, 400 or 600, diluted 100 times in water pH 6.5): quantitative absence of T4 in the permeate
T4 in the permeate of ≤100 KDa membrane ([3]; T4 in PEG 8000/glycerol or PEG/ethanol 50/50 w/w, diluted 100 times in water pH 6.5): quantitative absence of T4 in the permeate
T4 in the permeate of ≤100 KDa membrane ([3]; T4 in glycerin, ethanol or glycerin/ethanol 80/20 w/w, diluted 100 times in water pH 6.5): quantitative absence of T4 in the permeate
intrinsic dissolution rate (IDR) ([4]; entire physiological pH range): about 0.0002 mg/min/cm^2
Biopharmaceutics Classification System class ([4]; high solubility and intestinal permeability): Class I
T4 assay value of the solutions ([6]; T4 150 μg/mL in ethanol, glycerol, PEG 200, 300, 400 or 600 (all cases), nitrogen atmosphere): remains the same as the theoretical value

From patent US20200246297A1, “LIQUID PHARMACEUTICAL FORMULATIONS OF TETRAIODOTHYRONINE” (priority 2015, published 2020)
